Laboratory results taken from BindingDB's records for doi:10.1016/s0960-894x(01)00648-5 (Merck Research Laboratories, 2001).

Legend:
Genome polyprotein [1] = molecular target: T1, Genome polyprotein (Human rhinovirus sp., UniProt Q4U254); experiment: ChEBML_160894
T1 sequence (Q4U254 whole entry): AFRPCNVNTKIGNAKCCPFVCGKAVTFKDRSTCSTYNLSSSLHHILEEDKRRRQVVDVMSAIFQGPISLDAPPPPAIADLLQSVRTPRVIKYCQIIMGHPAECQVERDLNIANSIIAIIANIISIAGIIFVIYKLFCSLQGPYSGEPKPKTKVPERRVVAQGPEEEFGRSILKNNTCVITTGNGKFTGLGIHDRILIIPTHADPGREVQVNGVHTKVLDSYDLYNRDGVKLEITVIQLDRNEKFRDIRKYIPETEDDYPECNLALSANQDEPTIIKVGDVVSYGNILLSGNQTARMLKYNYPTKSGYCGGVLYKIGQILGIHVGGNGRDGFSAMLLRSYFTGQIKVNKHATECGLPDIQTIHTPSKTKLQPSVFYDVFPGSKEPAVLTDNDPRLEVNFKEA
Description: (§1) Inhibitory activity against HRV 3Cpro using HPLC assay

Genome polyprotein [2] = molecular target: T2, Genome polyprotein (Human rhinovirus sp., UniProt Q04107); experiment: ChEBML_160894
T2 sequence (Q04107 whole entry): T1 sequence (Q4U254 whole entry)
Description: as §1

Structure (SMILES)	IC50 (Genome polyprotein [1]) [µM]	IC50 (Genome polyprotein [2]) [µM]
O=C1C(=O)c2ccccc2-c2ccccc21	1.4	–
COC1=CC(=O)c2ccccc2C1=O	26	–
O=C1CC(=O)c2ccccc2C1=O	> 150	–
O=C1C=Cc2ccccc2C1=O [1,2-dihydronaphthalene-1,2-dione]	–	8.2
Cc1cc(O)c2c(c1)C(=O)c1cc(O)cc(O)c1C2=O [1,3,8-trihydroxy-6-methylanthra-9,10-quinone]	–	> 150
O=C1C=CC(=O)c2ccccc21 [1,4-dihydronaphthalene-1,4-dione]	21	–
COC1=CC(=O)c2ccc(C)cc2C1=O [2-Methoxy-7-methyl-[1,4]naphthoquinone]	10.5	–
COC1=CC(=O)c2c(O)cc(C)cc2C1=O [2-methoxy-7-methyljuglone]	2.4	–
Cc1cc(O)c2c(c1)C(=O)C=CC2=O [5-Hydroxy-7-methyl-[1,4]naphthoquinone]	6.4	–
COC1=CC(=O)c2c(cc(C)c(C(C)=O)c2O)C1=O [6-Acetyl-5-hydroxy-2-methoxy-7-methyl-[1,4]naphthoquinone]	4.6	–
CC(=O)c1c(C)cc2c(c1O)C(=O)C(=O)CC2=O [7-Acetyl-2,8-dihydroxy-6-methyl-[1,4]naphthoquinone]	> 150	–
COC1=CC(=O)c2cc(C)c(C(C)=O)c(OC)c2C1=O [7-Acetyl-2,8-dimethoxy-6-methyl-[1,4]naphthoquinone]	124	–
CC1Cc2cc(O)c3c(c2C(=O)O1)C(=O)C=C(C1=CC(=O)c2c(c(O)cc4c2C(=O)OC(C)C4)C1=O)C3=O (stereo not drawn) [9,9'-Dihydroxy-2,2'-dimethyl-1,2,1',2'-tetrahydro-[7,7']bi[3-oxa-phenanthrenyl]-4,5,8,4',5',8'-hexaone]	–	6
C[C@@H]1CC2=C(C(=O)c3c(O)cc(O)cc3C2=O)[C@@H](O)O1 [(1S,3R)-1,7,9-Trihydroxy-3-methyl-3,4-dihydro-1H-benzo[g]isochromene-5,10-dione]	47	–
COC1=CC(=O)c2c(cc(C)c(C(C)=O)c2OC(C)=O)C1=O [Acetic acid 2-acetyl-6-methoxy-3-methyl-5,8-dioxo-5,8-dihydro-naphthalen-1-yl ester]	8.1	–
COC1=CC(=O)c2c(OC(C)=O)cc(C)cc2C1=O [Acetic acid 6-methoxy-3-methyl-5,8-dioxo-5,8-dihydro-naphthalen-1-yl ester]	40	–
O=C1C=CC(=O)c2c1ccc1c2ccc2ccccc21 [Chrysene-1,4-dione]	46.5	–
COc1cc(O)c2c(c1)C(=O)c1cc(C)cc(O)c1C2=O [physcion]	> 150	–
